Here are results for four compounds from ChEMBL document CHEMBL4002628, “Benzenesulphonamide inhibitors of the cytolytic protein perforin” (Bioorg Med Chem Lett, 2017).

pIC50: −log10 of the molar value. The source made the active and inactive calls. The calls are words filed in the database; no cut-off is given here.

The target of assay [1] is T1, Perforin-1 (Homo sapiens) (UniProt P14222).
T1 sequence (whole entry): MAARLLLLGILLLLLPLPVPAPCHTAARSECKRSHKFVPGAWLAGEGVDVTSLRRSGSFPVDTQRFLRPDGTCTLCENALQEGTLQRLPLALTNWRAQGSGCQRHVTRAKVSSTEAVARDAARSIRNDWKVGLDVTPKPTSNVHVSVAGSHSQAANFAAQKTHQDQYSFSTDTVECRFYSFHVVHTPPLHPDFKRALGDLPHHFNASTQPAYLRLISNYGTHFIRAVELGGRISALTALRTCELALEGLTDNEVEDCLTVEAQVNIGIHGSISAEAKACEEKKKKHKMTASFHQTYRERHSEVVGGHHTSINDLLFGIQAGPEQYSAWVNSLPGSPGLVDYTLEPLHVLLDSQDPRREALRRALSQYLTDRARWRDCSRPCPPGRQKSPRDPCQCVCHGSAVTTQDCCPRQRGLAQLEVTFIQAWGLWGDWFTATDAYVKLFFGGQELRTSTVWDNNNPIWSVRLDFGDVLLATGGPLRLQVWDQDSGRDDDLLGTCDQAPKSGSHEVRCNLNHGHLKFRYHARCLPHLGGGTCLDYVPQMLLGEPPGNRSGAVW
Briefly: Inhibition of recombinant perforin (unknown origin) assessed as decrease in lysis of 51Cr-labelled human Jurkat cells by measuring 51Cr release at 20 uM preincubated for 30 mins followed by cell line addition measured after 4 hrs in presence of 10% mouse serum by gamma counting method relative to control.

A short description of assay [2]: Inhibition of N-terminal His-tagged recombinant human p85alpha expressed in baculovirus infected insect Sf21 cells/recombinant wild type mouse p110alpha using phosphatidylinositol as substrate in presence of [33P]-ATP.

Consider `O=C1NCc2ccc(-c3ccc(-c4cncc(NS(=O)(=O)c5ccc(F)cc5F)c4)s3)cc21`, for which, in assay [1], the inhibition entry was “Active”.
By pIC50 is commonly meant the IC50 on a negative log10 scale, so that one unit is a factor of ten. With `CN1Cc2cc(-c3ccc(-c4cncc(NS(=O)(=O)c5ccc(F)cc5F)c4)s3)ccc2C1=O`, the inhibition entry in assay [1] is “Active”. The negative-log IC50 (pIC50) in assay [2] is below 5.20.
Take `O=C1NCc2cc(-c3ccc(-c4cncc(NS(=O)(=O)c5ccc(F)cc5F)c4)s3)ccc21`: the inhibition entry in assay [1] is “Active”.
`O=C1Cc2cc(-c3ccc(-c4cncc(NS(=O)(=O)c5ccc(F)cc5F)c4)s3)ccc2N1`: the inhibition result in assay [1] was “Active”.
